We go through six molecules from US12325708B2, “Adenosine 2 receptor antagonists” (Nektar Therapeutics, priority 2019, dated 2025).

One data set concerns the target T1, A1 receptor (Homo sapiens, UniProt P30542).
T1 construct: purchased
T1 sequence (P30542 1-326): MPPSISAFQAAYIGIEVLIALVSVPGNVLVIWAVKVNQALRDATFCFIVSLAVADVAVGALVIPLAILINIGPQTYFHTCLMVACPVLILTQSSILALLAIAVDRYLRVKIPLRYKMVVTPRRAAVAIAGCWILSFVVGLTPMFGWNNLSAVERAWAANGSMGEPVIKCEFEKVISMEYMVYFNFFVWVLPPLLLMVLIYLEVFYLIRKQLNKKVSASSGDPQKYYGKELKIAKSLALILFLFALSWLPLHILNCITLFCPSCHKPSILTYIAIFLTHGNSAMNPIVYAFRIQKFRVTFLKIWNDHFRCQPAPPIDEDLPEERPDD
Description: Radioligand receptor binding assay, A1 receptor. To be noted: cell membranes overexpressing A1 receptor, read-out: Potency Ki A1. As to the method: (§1) Using conventional receptor binding assay techniques, Compounds 1-24 were assayed to determine binding activity at the A2A, A1, and A3 receptors with the results shown in Table 7.
(§2) Receptor binding affinity of Compounds 1-24 was measured using radioligand binding assays using commercially obtained cell membranes prepared from cell lines overexpressing the A2A, A1, or A3 receptors. Briefly, cell membrane preparations from cells expressing the specific receptor were mixed with the appropriate [^3H]-labeled tracer for the specific receptor and the test compound or a known inhibitor of receptor-ligand binding. Following 60 min incubation at room temperature to allow receptor-ligand complex formation, the complexes were collected by filtration, washed with 50 mM Tris HCl (pH 7.5) to remove radioligand that was not receptor-bound, and the remaining radioactivity determined by liquid scintillation counting. Specific radioligand binding was calculated for each test compound concentration and IC50 values were determined by non-linear, regression analysis. Inhibition constants (Ki) were calculated using the equation of Cheng and Prusoff using the observed IC50 of the tested compound, the concentration of radioligand employed in the assay and the experimentally determined values for the Kd of the ligand.

In another data set the target is T2, A2A receptor (Homo sapiens, UniProt P29274).
T2 construct: purchased
T2 sequence (P29274 whole entry): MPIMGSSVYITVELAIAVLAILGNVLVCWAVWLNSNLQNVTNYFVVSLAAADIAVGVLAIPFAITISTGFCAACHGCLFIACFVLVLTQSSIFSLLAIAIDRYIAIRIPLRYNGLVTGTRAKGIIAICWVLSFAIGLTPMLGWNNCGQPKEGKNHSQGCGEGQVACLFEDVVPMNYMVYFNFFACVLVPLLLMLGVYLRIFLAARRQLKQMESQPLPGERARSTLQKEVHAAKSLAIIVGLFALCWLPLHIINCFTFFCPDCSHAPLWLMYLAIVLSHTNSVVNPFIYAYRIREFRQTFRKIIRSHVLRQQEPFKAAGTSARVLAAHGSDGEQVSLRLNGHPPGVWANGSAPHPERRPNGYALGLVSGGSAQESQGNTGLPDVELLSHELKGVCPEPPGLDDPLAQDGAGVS
Description: Radioligand receptor binding assay, A2A receptor. The following applies: cell membranes overexpressing A2A receptor, read-out: Potency Ki A2A. As to the method: as §1, §2

Data set [1] can be described thus: Brain-to-plasma ratio (B/P) after administration. The data set is classed as in vivo, Sprague-Dawley rats. To be noted: Sprague-Dawley, rat, brain-to-plasma ratio at 1 h. The text has this: A similar unexpected result was obtained when the phenyl ring present on Compound 1 was replaced with a halogen substituted pyridine. The halogen was previously introduced on the phenyl ring with the aim of blocking a possible metabolic soft-spot, with similar results observed as for Compound 1 in terms of exposure, clearance and bioavailability (Compound 10 and Compound 15). The substituted pyridine ring was designed to modulate the lipophilicity and polar surface area, as well as to address metabolic soft-spot concerns. Clearance and bioavailability parameters remain similar between substituted phenyl and pyridine (Compound 4 and Compound 14) analogs, which span a range in cLogP of 2.7-3.2. It was therefore surprising the significant improvement in exposure and clearance observed for the more lipophilic Compound 19. […] A compound is commonly deemed to be a brain penetrant if the brain-to-blood/plasma concentration ratio (B/P) is greater than 0.04 using methods as known in the art (Schaffer, Annual Reports in Medicinal Chemistry, 45:55-70, 2010).
Plasma pharmacokinetic parameters were determined following oral (PO) administration of further compounds essentially as described in Example 28 with the results shown in Table 6.

Data set [2] in a line: Plasma pharmacokinetic parameters following intravenous (IV) or oral (PO) administration in rats. The data set is classed as in vivo, Sprague-Dawley rats. To be noted: rat. The procedure:
Adult male Sprague-Dawley rats (230-250 g) (Charles River Labs, Hollister, CA) were utilized for the study. There were 2 rats/group. All animals were food fasted overnight with water provided ad libitum at all times. Compounds 1, 4, 14 and 19 were synthesized as described in Examples 2, 17, 7, and 12, respectively, and formulated in injectable water.
(§3) The morning of each dosing, individual doses were calculated based on current body weights on the day of dosing. The jugular vein cannula (JVC) and the carotid artery cannula (CAC) were externalized, flushed with HEP/saline (10 IU/mL HEP/mL saline), plugged, and labeled to identify the jugular vein and the carotid artery. The IV group animals were dosed at 0.5 mg/kg of Compound 1, 4, 14 or 19, respectively, intravenously via the jugular vein, while the PO dose was administered 2.5 mg/kg of Compound 1, 4, 14 or 19, respectively, orally via gavage. For the IV group, immediately following the dose of test article, the dead volume of the catheter was flushed with 0.9% saline to ensure the animals received the full dose.
Approximately 0.2 mL of blood was collected per time point from JVC. Blood samples were collected at 2 (IV group only), 5, 15, 30, 60, 120, 240, 360, 420 (Compound 19 only), 480, 720 (Compound 19 only), and 1440 minutes via the CAC and transferred immediately into K2EDTA coated tubes pre-loaded 2 μl with quenching cocktail and placed on wet ice. The samples were centrifuged within 30 min after collection at 10,000 RPM for 5 minutes and the resulting plasma was separated. Plasma was transferred into microfuge tubes and placed on dry ice immediately. The plasma samples were stored at approximately −70° C. until bioanalysis.
Plasma samples were extracted by protein precipitation with acetonitrile containing 0.1% formic acid and doxepin for Compound 1 (available from Sigma-Aldrich) or SCH58261 for Compounds 4, 14 and 19 (available from Sigma-Aldrich) as an internal standard. Following vortex and centrifugation, supernatant was diluted 3-fold with water containing 0.1% formic acid and analyzed by LC-MS/MS.
Pharmacokinetic parameters (PK) were determined by non-compartmental analysis (NCA) using Phoenix 64 WinNonlin (version 8) and Dotmatics (version 5.0). Nominal doses and time points were used for the analysis.
The following PK parameters were estimated using plasma concentration-time profile of each animal with the results presented in Table 3: • AUCinf Area under the concentration-time from zero to time infinity • AUClast Area under the concentration-time from zero to time of last concentration value • F Bioavailability • CL Total body clearance • Cmax Maximum (peak) concentration • MRTlast Mean residence time to last observable concentration • Tmax Time to reach maximum or peak concentration following administration • Vss Volume of distribution at steady state
Adult male Sprague-Dawley rats (230-250 g) (Charles River Labs, Hollister, CA) were utilized for the study. There were 2 rats/group. All animals were food fasted overnight with water provided ad libitum at all times. Compound 1 was synthesized as described in Example 2 and formulated in injectable water.
as §3, with “1” for “1, 4, 14 or 19, respectively,”
Approximately 0.2 mL of blood was collected per time point from JVC. […]

The mark [3] stands for this setting: male, Sprague-Dawley, plasma, 2.5 mg/kg, Table 6, oral (PO) administration essentially as described in Example 28.
Where [4] appears, read: male, Sprague-Dawley, plasma, intravenous, 0.5 mg/kg, Table 6, essentially as described in Example 28.
Setting [5] is: male, Sprague-Dawley, plasma, po, 2.5 mg/kg, Table 6, oral (PO) administration essentially as described in Example 28.
[6] abbreviates: male, Sprague-Dawley, plasma, intravenous, 0.5 mg/kg, Table 2 summary of Example 27, values marked 1 are the average of experiments.
The mark [7] stands for this setting: male, Sprague-Dawley, plasma, oral, 2.5 mg/kg, Table 2 summary of Example 27, values marked 1 are the average of experiments.
[8] abbreviates: male, Sprague-Dawley, plasma, iv, 0.5 mg/kg, IV 0.5 mg/kg, injectable water.
Setting [9] is: male, Sprague-Dawley, plasma, po, 2.5 mg/kg, PO 2.5 mg/kg via gavage, injectable water.

pKi: −log10 of the molar value.

By pKi is commonly meant −log10 of the Ki, conventionally taken in molar units. For orientation: Kp means tissue or fluid exposure divided by exposure in the circulation. Usually AUC stands for concentration integrated over time. Low values mean less exposure, high ones more exposure. As usually defined, the bioavailability is the share of a dose that reaches the circulation, judged against a reference dose that is usually intravenous. Higher therefore signals good availability. For `[2H]C([2H])([2H])N(CCN1CCN(c2ccc(OCCOC)cc2)CC1)c1cc2nc(-c3ncco3)nn2c(N)n1` [Compound 6, N^7-(2-{4-[4-(2-methoxyethoxy)phenyl]piperazin-1-yl}ethyl)-N^7-(^2H3)methyl-2-(1,3-oxazol-2-yl)[1,2,4]triazolo[1,5-c]pyrimidine-5,7-diamine], the pKi at A1 receptor is less than 5.40; on A2A receptor, 7.92. Moreover, the concentration ratio (Kp) at 1 h in data set [1] (oral, 2.5 mg/kg, Table 6) amounted to 0.05. Moreover, the AUC in data set [2] (setting [3]) was determined as 852 ng·h/mL. In data set [2] (setting [4]), the clearance was found to be 34 mL/min/kg. This molecule also had a bioavailability in data set [2] (setting [5]) of 64%.

`COCCOc1ccc(N2CCN(CCN(C)c3cc4nc(-c5ccco5)nn4c(N)n3)CC2)cc1` [Reference compound, 2-(furan-2-yl)-N^7-(2-(4-(4-(2-methoxyethoxy)phenyl)piperazin-1-yl)ethyl)-N^7-methyl-[1,2,4]triazolo[1,5-c]pyrimidine-5,7-diamine, reference compound]: the pKi on A1 receptor is 5.90. In addition, on A2A receptor, the pKi was 8.59. Also, the partition ratio (Kp) at 1 h in data set [1] (Table 2) turned out to be 0.17. In data set [2] (setting [6]), this molecule returned a clearance of 34 mL/min/kg. In data set [2] (setting [7]), this molecule showed an AUC of 408 ng·h/mL and a bioavailability of 34%.

For the molecule `[2H]C([2H])([2H])OC([2H])([2H])C([2H])([2H])Oc1cnc(N2CCN(CCN(C)c3cc4nc(-c5ncco5)nn4c(N)n3)CC2)c(F)c1` [Compound 13, N^7-(2-{4-[3-fluoro-5-({2-[(^2H3)methyloxy](^2H4)ethyl}oxy)pyridin-2-yl]piperazin-1-yl}ethyl)-N^7-methyl-2-(1,3-oxazol-2-yl)[1,2,4]triazolo[1,5-c]pyrimidine-5,7-diamine], the pKi was 4.49 at A1 receptor and 8.40 on A2A receptor. For the same molecule, in data set [1] (oral, 2.5 mg/kg, Table 6), the Kp at 1 h was 0.06. In data set [2] (setting [3]), this molecule yielded an exposure (AUC) of 709 ng·h/mL. Also, the clearance in data set [2] (setting [4]) worked out at 33 mL/min/kg. For the same molecule, the bioavailability in data set [2] (setting [5]) is 57%.

As a reminder, the AUC(0-inf) is the area under the concentration-time curve extrapolated to infinity. The low end stands for less exposure, the high end for more exposure. In general, AUC(0-t) refers to exposure summed from dosing to a finite time, without extrapolation to infinity. Low values mean low exposure, high ones high exposure. The term MRT last denotes a mean duration of stay, worked out from the concentration-time curve. For orientation: Cmax means the maximum level reached in the sampled fluid or tissue. The term Tmax denotes the time at which the peak concentration occurs. In the case of `COCCOc1cnc(N2CCN(CCN(C)c3cc4nc(-c5ncco5)nn4c(N)n3)CC2)c(Cl)c1` [Compound 14, N^7-(2-{4-[3-chloro-5-(2-methoxyethoxy)pyridin-2-yl]piperazin-1-yl}ethyl)-N^7-methyl-2-(1,3-oxazol-2-yl)[1,2,4]triazolo[1,5-c]pyrimidine-5,7-diamine], the pKi on A1 receptor was 4.82. Also, the negative logarithm of the Ki (pKi) at A2A receptor is 8.40. Moreover, the Kp at 1 h in data set [1] (Table 2) stood at 0.025. Moreover, the clearance in data set [2] (setting [6]) came out at 17 mL/min/kg. In data set [2] (setting [8]), this molecule registered an AUC(0-inf) of 526 ng·h/mL, an area under the curve AUC(0-t) of 523 ng·h/mL, an MRT last of 0.977 h and a clearance of 16.6 mL/min/kg. In data set [2] (male, Sprague-Dawley, plasma, iv, 0.5 mg/kg, IV 0.5 mg/kg, injectable water, read-out: Vss obs), the Vd was 1.02 L/kg. In addition, in data set [2] (setting [7]), the AUC came to 1480 ng·h/mL and the bioavailability turned out to be 56%. In data set [2] (setting [9]), this molecule yielded an AUC(0-inf) of 1480 ng·h/mL, an area under the curve AUC(0-t) of 1370 ng·h/mL and an MRT last of 2.43 h. Moreover, in data set [2] (male, Sprague-Dawley, plasma, po, 2.5 mg/kg, PO 2.5 mg/kg via gavage, injectable water, read-out: Cmax), the Cmax is 373 ng/mL. The time to peak (Tmax) in data set [2] (male, Sprague-Dawley, plasma, po, 2.5 mg/kg, PO 2.5 mg/kg via gavage, injectable water, read-out: Tmax) worked out at 1 h. The “Total clearance as % liver blood flow” value in data set [2] (IV) is listed as roughly 28 % liver blood flow. This molecule also gave a F in data set [2] (PO 2.5 mg/kg vs IV 0.5 mg/kg) of 56.1%.

Turning to `CN(CCN1CCN(c2ccc(OCCOC(F)(F)F)cc2)CC1)c1cc2nc(-c3ncco3)nn2c(N)n1` [Compound 5, N^7-methyl-2-(1,3-oxazol-2-yl)-N^7-[2-(4-{4-[2-(trifluoromethoxy)ethoxy]phenyl}piperazin-1-yl)ethyl][1,2,4]triazolo[1,5-c]pyrimidine-5,7-diamine], the negative logarithm of the Ki (pKi) is less than 5.00 on A1 receptor and 8.15 on A2A receptor. In addition, in data set [1] (oral, 2.5 mg/kg, Table 6), the Kp at 1 h stood at 0.1. The molecule further gave an exposure (AUC) in data set [2] (setting [3]) of 971 ng·h/mL. The molecule also displayed a clearance in data set [2] (setting [4]) of 21 mL/min/kg. This molecule also yielded a bioavailability in data set [2] (setting [5]) of 48%.

In the case of `COCCOc1ccc(N2CCN(CCN(C)c3cc4nc(-c5ncco5)nn4c(N)n3)CC2)nc1` [Compound 23, N^7-(2-{4-[5-(2-methoxyethoxy)pyridin-2-yl]piperazin-1-yl}ethyl)-N^7-methyl-2-(1,3-oxazol-2-yl)[1,2,4]triazolo[1,5-c]pyrimidine-5,7-diamine], the pKi is 4.81 on A1 receptor and 8.05 at A2A receptor. The Kp at 1 h in data set [1] (oral, 2.5 mg/kg, Table 6) stood at 0.08. In data set [2] (setting [3]), this molecule returned an AUC of 336 ng·h/mL. For the same molecule, the clearance in data set [2] (setting [4]) came out at 52 mL/min/kg. The bioavailability in data set [2] (setting [5]) is 42%.
